Test results published in US5707815A, “Mammalian monocyte chemoattractant protein receptors and assays using them” (Regents of the University of California, priority 1995, dated 1998).
Like-named read-outs stand apart in the source and are kept apart here.

B1: macrophage inhibitory protein-1 [MIP-1β] (protein, UniProt P13236 24-92, looked up)
C-C motif chemokine 4: APMGSDPPTACCFSYTARKLPRNFVVDYYETSSLCSQPAVVFQTKRSKQVCADPSESWVQEYVYDLELN
notes: C--C chemokine, obtained from R&D

Tests used:
MCP-1RB receptor [1] = experiment: Intracellular calcium mobilization (indo-1) in stably transfected MCP-1RB/293 cells; assay type: cell-based, human; details: for block of stimulation of the cells by MCP-1 / stimulation of calcium signals: MCP-1RB/293 cells; for stimulation of calcium signals: high concentrations
Description: Calcium mobilization in 293 cells was then investigated. Transfected HEK-293 cells were grown until confluent, trypsinized briefly, washed with phosphate buffered saline containing 1 mg/ml BSA (PBS-BSA), and resuspended in serum-free MEM-EBSS supplemented with 1 mg/ml BSA and 10 mM HEPES (pH 7.0) at a density of 2×10^7 cells/ml. The cells were incubated in the dark at 37° C. for 20 min in the presence of 5-10 μg/ml indo-1 AM (Molecular Probes, Inc., Eugene, Oreg.). Nine volumes of PGS-BSA were added, and the cells were incubated for an additional 10 min at 37° C., pelleted by centrifugation, and washed twice with 50 ml of the PBS-BSA solution. Washed, indo-1-loaded cells were then resuspended in Hank's Balanced Salt Solution (1.3 mM Ca^2+) supplemented with 1 mg/ml BSA (HBS-BSA) at a density of approximately 0.5×10^6 cells/ml at room temperature. To measure intracellular calcium ([Ca^2+ ]i), 0.5 ml of the cell suspension was placed in a quartz cuvette in a Hitachi F-2000 fluorescence spectrophotometer. […] Intracellular calcium was measured by excitation at 350 nm and fluorescence emission detection at 490 nm (F1) and 410 nm (F2) wavelengths. The [Ca^2+ ]i was estimated by comparing the 490/410 fluorescence ratio after agonist application (R) to that of calibration ratios measured at the end of each run, according to the equation:
[Ca^2+ ]i =Kd ×[(R--Rmin)/(Rmax
where Rmax and Rmin represent the fluorescence ratio under saturating (1.3 mM Ca^2+) and nominally free (10 mM EGTA, Sigma Chemical Co.) calcium conditions, Kd is the dissociation constant of calcium for indo-1, R is the fluorescence ratio, and Sf2/Sb2 is the fluorescence ratio of free and bound indo-1 dye at 410 nm. See Thomas, AP and Delaville, F (1991) in Cellular Calcium, a Practical Approach, Oxford Univ. Press, pp. 1-54.
To quantirate calcium responses, MCP-1 dose response curves were generated in each experiment and the results were expressed as a percent of the maximum calcium signal (at 300 nM MCP-1) measured in that experiment. The changes in [Ca^2+ ]i levels in response to each concentration of agonist were determined by subtracting the baseline from peak [Ca^2+ ]i levels, which were determined by averaging 5 seconds of data prior to agonist addition and surrounding the peak response, respectively. In experiments done to determine the role of extracellular calcium, 3 mM EGTA was added 60-90 seconds prior to MCP-1. […] All experiments were performed at room temperature.
(§1) Inhibition of MCP-1RB receptor activation by bordetella pertussis toxin was investigated. Pertussis toxin (List Biological Labs, Inc., Campbell, Calif.) was dissolved in 0.01M sodium phosphate, pH 7.0, 0.05M sodium chloride and diluted into normal serum containing media at final concentrations of 0.1 ng/ml to 100 ng/ml, and incubated with cells overnight (14-16 h) at 37° C. The conditions of the Pertussis toxin treatment of the 293 cells were identical for calcium fluorimetric and adenylyl cyclase experiments. In the adenylyl cyclase experiments, the Pertussis toxin was added at the same time as [^3 H]adenine.
(§2) Dose response curves generated in the calcium fluorimetric and adenylyl cyclase inhibition assays were fit by a nonlinear least squares program to the logistic equation:
(§3) Effect=max effect/[1+(EC50 /(agonist)^n)]
(§4) where n and EC50 represent the Hill coefficient and the agonist concentration that elicited a half-maximal response, respectively, and were derived from the fitted curve. Curve fitting was done with the computer program "Prism" (by Graph Pad, San Diego, Calif.). Results represent the mean ±SE. The 95% confidence intervals (CI) of the EC50 and IC50 values, when given, were calculated from the log EC50 and IC50 values, respectively.

MCP-1RB receptor [2] = assay type: cell-based, human; details: for IC50: Table I, read-out: Inhibition of Adenylyl Cyclase IC50 (nM) MCP-1RB; for activation of the MCP-1 receptor in the adenylyl cyclase assay: high concentrations
Description: (§5) To investigate inhibition of adenylyl cyclase activity, HEK-293 cells stably-transfected with the MCP-1RB receptor and the MIP-1α/RANTES receptor were grown until confluent in 24-well tissue culture dishes and labeled overnight with 2 μCi/ml of [^3 H]adenine (25-30 Ci/mmol) (New England Nuclear, Boston, Mass.) in MEM-EBSS supplemented with 10% FCS. The next day, the cells were washed by incubation at room temperature with 0.5 ml of serum-free MEM-EBSS media supplemented with 10 mM HEPES, 1 mg/ml BSA, and 1 mM IBMX (3-isobutyl-1-methylxanthine) for 5 min. […] The incubation was terminated by replacement of the media with 1 ml of ice-cold 5% TCA (trichloroacetic acid), 1 mM cAMP, and 1 mM ATP (Sigma). Following incubation at 4° C. for 30 min, the labeled [^3 H]ATP and [3H]cAMP pools were separated and quantitated by chromatography on Dowex 50W (200-400 mesh, hydrogen form, from Sigma) and neutral alumina columns (also from Sigma), as described in Hung, J. Biol. Chem. 267:20831-34 (1992) and Wong, Nature 351: 63-65 (1991). The 1 ml acid supernatant was loaded onto a 1-ml Dowex 50W column and the ATP pool eluted with 3 ml of H2 O. The Dowex 50W columns were then placed over 1-ml alumina columns, and 10 ml of H2 O was added to the Dowex resin and the eluant allowed to drop directly onto the neutral alumina. The cAMP pool was then eluted directly from the alumina with 5 ml of 0.1M imidazole/0.01mM sodium azide. The [^3 H]ATP and [^3 H]cAMP fractions were counted by liquid scintillation spectroscopy. The cAMP pool for each sample was normalized to its own ATP pool and expressed as a ratio by the equation (cAMP cpms/ATP cpms)×100. In each experiment full dose-response curves were generated and expressed as a percent of the forskolin control.
as §1, §2, §3, §4

MIP-1α/RANTES receptor = experiment: Inhibition of adenylyl cyclase (cAMP accumulation) in HEK-293 cells stably transfected with MIP-1α/RANTES receptor; assay type: cell-based; details: for activation of the MIP-1α/RANTES receptor: at up to 1 μM
Description: as §5
In similar experiments the MIP-1α/RANTES receptor was stably transfected into 293 cells and also found to mediate potent and dose-dependent inhibition of adenylyl cyclase activity. Unlike the MCP-1RB receptor, however, the MIP-1α/RANTES receptor was activated by multiple chemokines with varying degrees of potency.
as §2, §3, §4

MCP-1RB = experiment: Ca45 efflux assay in Xenopus oocytes injected with MCP-1RB cRNA; assay type: cell-based, human; details: ligand at 500 nM
Description: (§6) The calcium efflux assay was performed to confirm expression of functional MCP-1R protein and to determine whether the MCP-1 receptors A and B conferred responsiveness to MCP-1 or other chemokines. In this assay, MCP-1RA and 1RB cRNA was microinjected into Xenopus oocytes and receptor signaling activities measured by detection of agohist-induced calcium mobilization.
(§7) As described in Vu, Cell 64:1057-68(1991), cRNA was prepared by SP6 RNA polymerase transcription from a NotI linearized vector and run on an agarose gel to confirm a single band of the expected size. One day after harvesting, oocytes were injected with 20 ng of cRNA in a total volume of 50 nl per oocyte. After incubation in modified Barth's buffer for 2 days at 16° C., the oocytes were loaded with Ca^45 (50 uCi/ml, Amersham, Arlington Heights, Va.) for 3 hours, washed for one hour, and placed into wells of a 24-well dish in groups of seven, in a volume of 0.5 ml Ca^45 efflux was determined by collecting the media at 10 minute intervals and counting beta emissions in a liquid scintillation counter. […] Uninjected oocytes were used as controls.

MCP-1RA = experiment: Ca45 efflux assay in Xenopus oocytes injected with MCP-1RA cRNA; assay type: cell-based, human; details: ligand at 500 nM
Description: as §6, §7

MCP-1RB receptor [3] = experiment: Equilibrium binding of 125I-MCP-1 to MCP-1RB expressing HEK-293 cells; set-up: species or system human; details: unlabeled chemokine, 500 pM 125I-labeled MCP-1
Description: Equilibrium binding assays were then performed using the method of Ernst, J. Immunol. 152:3541-49 (1994). […] Competition experiments were performed using 500 pM ^125 I-labeled MCP-1 and the concentrations of unlabeled chemokines as indicated in FIG. 7A-B.
Equilibrium binding data were analyzed according to the method of Scatchard using the program "LIGAND" (Biosoft, Ferguson, Mo.) on a Macintosh computer. See Munson, Anal. Biochem. 107: 220-39 (1980).

MM6 cells = experiment: MCP-1 induced calcium flux in MM6 cells (calcium efflux assay); assay type: cell-based, human; details: label = chemokine given first, MCP-1 versus RANTES (or MIP-1α)
Description: Because monocytes are difficult to isolate in usable quantity and express less than 2000 high affinity MCP-1 binding sites per cell, a cultured cell line that responded well to MCP-1 had to be identified. Using the calcium effiux assay as described in Vu, Cell 64:1057-68(1991), MCP-1 induced calcium fluxes in various cell lines were measured. […] In contrast, a dose-dependent calcium flux was detected in MM6 cells, with half maximal stimulation at 4nM MCP-1.

[4] = pretreatment overnight, 0.1 to 100 ng/ml
[5] = MIP-1α/RANTES receptor, read-out: IC50 for inhibition of adenylyl cyclase

| Molecule | calcium efflux response elicited (MCP-1RB) | block of stimulation of the cells by MCP-1 (MCP-1RB receptor [1]) | stimulation of calcium signals (MCP-1RB receptor [1]) | calcium efflux response elicited (MCP-1RA) | IC50 (MCP-1RB receptor [2]) | activation of the MCP-1 receptor in the adenylyl cyclase assay (MCP-1RB receptor [2]) | competition for 125I-MCP-1 binding (MCP-1RB receptor [3]) | also measured |
| --- | --- | --- | --- | --- | --- | --- | --- | --- |
| pertussis toxin [reference compound] | – | – | – | – | – | – | – | component resistant to inhibition (MCP-1RB receptor [1]; calcium mobilization, up to 100 ng/ml of PT): ≈ 20%; block of MCP-1-induced mobilization of intracellular calcium (MCP-1RB receptor [1]; [4]): substantially blocked; component resistant to inhibition (MCP-1RB receptor [2]; adenylyl cyclase inhibition, up to 100 ng/ml of PT): ≈ 20%; shift of the MCP-1 IC50 for cAMP accumulation (MCP-1RB receptor [2]; pertussis toxin treatment): without significantly shifting; block of MCP-1 inhibition of adenylyl cyclase (MCP-1RB receptor [2]; [4]): substantially blocked |
| macrophage inhibitory protein-1 [MIP-1α] | No response | failed to block | failed to stimulate significant calcium signals | no response | > 1000 nM | Virtually no activation | did not compete for binding | IC50 (MIP-1α/RANTES receptor; [5]): ~0.1 nM |
| RANTES: C--C chemokine, obtained from R&D | No response | failed to block | failed to stimulate significant calcium signals | no response | > 1000 nM | Virtually no activation | did not compete for binding | IC50 (MIP-1α/RANTES receptor; [5]): ~0.1 nM; effect of prior exposure to the chemokine on the calcium response to the other chemokine (MM6 cells): could not be ablated |
| interleukin-8 [IL-8] | No response | failed to block | failed to stimulate significant calcium signals | No response | – | Virtually no activation | – | activation of the MIP-1α/RANTES receptor (MIP-1α/RANTES receptor): did not activate; calcium efflux response elicited (MCP-1RA; listed as Il-8): no response |
| Gro-α: C-X-C chemokine | – | failed to block | failed to stimulate significant calcium signals | – | > 1000 nM | Virtually no activation | – | IC50 (MIP-1α/RANTES receptor; Table I, read-out: Inhibition of Adenylyl Cyclase IC50 (nM) MIP-1α/RANTES R): > 1000 nM; activation of the MIP-1α/RANTES receptor (MIP-1α/RANTES receptor): did not activate |
| C=C[C@@]1(C)CC(=O)[C@]2(O)[C@@]3(C)[C@@H](O)CCC(C)(C)[C@@H]3[C@H](O)[C@H](OC(C)=O)[C@@]2(C)O1 [Forskolin, forskolin, reference compound] | – | – | – | – | – | – | – | increase of cAMP levels (MCP-1RB receptor [2]; hek-293 cells, 20 min, 10 µM): 16 fold |
| B1 | No response | failed to block | failed to stimulate significant calcium signals | no response | > 1000 nM | Virtually no activation | did not compete for binding | – |
